# Measured values published in ChEMBL document CHEMBL1667732, “The diarylheptanoid (+)-aR,11S-myricanol and two flavones from bayberry (Myrica cerifera) destabilize the microtubule-associated protein tau” (J Nat Prod, 2011).
# Active and inactive are the calls of the source. The calls are words filed in the database; no cut-off is given here.
# What was measured:
# Mus musculus = species: Mus musculus; assay: Destabilization of microtubule-associated protein tau protein in mouse brain slice assessed as reduction in tau protein level at 50 to 250 uM; type: tissue-based
# [1] = Cytotoxicity against human HeLaC3 cells by LDH release assay; type: cell-based; conditions: hela c3
# [2] = Cytotoxicity against human IMR32 cells by LDH release assay; type: cell-based; conditions: imr-32
# HeLa-C3 = assay: Destabilization of microtubule-associated protein tau protein in human HeLa-C3 cells assessed as reduction in tau protein level at 50 to 250 uM; type: cell-based
# IMR-32 = assay: Destabilization of microtubule-associated protein tau protein in human IMR32 cells assessed as reduction in tau protein level at 50 to 250 uM; type: cell-based
compound,measurement,setting,value
COc1c2cc(c(O)c1OC)CCCC[C@H](O)CCc1ccc(O)c-2c1,Activity,Mus musculus,Active
same,Activity,[1],Non-toxic
same,Activity,[2],Non-toxic
same,Activity,HeLa-C3,Active
same,Activity,IMR-32,Active
